# According to patent US9656971B2, “COMT inhibitors” (Hoffmann-La Roche Inc., priority 2012, dated 2017):
# Structures can show the parent of a compound that is named as a salt.
# Target: T1, Rec. human COMT (Homo sapiens, UniProt P21964)
# T1 sequence (P21964 1-271): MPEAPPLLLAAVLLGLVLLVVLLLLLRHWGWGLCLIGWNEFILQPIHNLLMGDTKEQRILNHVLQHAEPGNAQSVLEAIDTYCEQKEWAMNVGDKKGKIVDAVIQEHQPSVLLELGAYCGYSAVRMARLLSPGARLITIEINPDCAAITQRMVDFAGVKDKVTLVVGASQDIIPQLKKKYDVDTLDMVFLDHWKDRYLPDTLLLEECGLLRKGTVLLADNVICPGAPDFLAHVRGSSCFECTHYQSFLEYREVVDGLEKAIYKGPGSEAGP
# Test: COMT-Fluorescence Assay
# Type: biochemical
# Settings: COMT-fluorescence assay, rec. human COMT 25 nM, 4-Nitrocatechol-Alexa488 200 nM, SAM 500 nM; read-out: IC50
# Method: This intramolecular interaction is disturbed if the 4-Nitrocatechol is methylated. […] This increase of fluorescence intensity can be followed in a kinetic measurement. The slope in the linear range of the kinetic is calculated. An inhibitor compound decreases the slope.
# Signal [rfu/min]=(rfu(end-point)−rfu(startpoint))/incubation_time_#2
row,Structure (SMILES),IC50 [nM]
1,"Cc1ncccc1-c1cc(O)c2nc[nH]c(=O)c2c1F [Example 198, 5-Fluoro-8-hydroxy-6-(2-methylpyridin-3-yl)quinazolin-4(3H)-one]",10
2,O=c1[nH]cnc2c(O)cc(CCCc3ccccc3)cc12 [Example 22],200
3,"O=C(c1ccc(-c2cc(O)c3nc[nH]c(=O)c3c2)cc1)N1CCC(F)(F)CC1 [Example 200, 6-[4-(4,4-Difluoro-piperidine-1-carbonyl)-phenyl]-8-hydroxy-3H-quinazolin-4-one]",10
4,"O=c1[nH]cnc2c(O)cc(-c3cccc(N4CCOCC4)n3)cc12 [Example 62, 8-Hydroxy-6-(6-morpholinopyridin-2-yl)quinazolin-4(3H)-one]",10
5,"COCCn1nccc1-c1cc(O)c2nc[nH]c(=O)c2c1 [Example 45, 8-Hydroxy-6-(1-(2-methoxyethyl)-1H-pyrazol-5-yl)quinazolin-4(3H)-one]",30
6,"O=c1[nH]cnc2c(O)cc(C3CCCC3)cc12 [Example 18, 6-Cyclopentyl-8-hydroxyquinazolin-4(3H)-one]",900
7,"CC(C)Cc1cc(O)c2nc[nH]c(=O)c2c1 [Example 17, 8-Hydroxy-6-isobutylquinazolin-4(3H)-one]",1100
8,"Cc1cc(-c2cc(O)c3nc[nH]c(=O)c3c2)ccn1 [Example 134, 8-Hydroxy-6-(2-methylpyridin-4-yl)quinazolin-4(3H)-one]",10
9,"Nc1c(-c2ccc(F)cc2)cc(O)c2nc[nH]c(=O)c12 [Example 253, 5-Amino-6-(4-fluorophenyl)-8-hydroxyquinazolin-4(3H)-one hydrobromide]",100
10,"O=c1[nH]cnc2c(O)cc(-c3ccc(F)cc3)cc12 [Example 125, 6-(4-Fluorophenyl)-8-hydroxyquinazolin-4(3H)-one]",20
11,"N#Cc1ccc(-c2c(-c3ccc(F)cc3)cc(O)c3nc[nH]c(=O)c23)cc1 [Example 64, 4-[6-(4-Fluoro-phenyl)-8-hydroxy-4-oxo-3,4-dihydro-quinazolin-5-yl]-benzonitrile]",10
12,"O=c1[nH]cnc2c(O)c(Cl)c(-c3ccc(F)cc3)cc12 [Example 245, 7-Chloro-6-(4-fluorophenyl)-8-hydroxyquinazolin-4(3H)-one]",730
13,"COc1ccccc1-c1cc(O)c2nc[nH]c(=O)c2c1 [Example 161, 8-Hydroxy-6-(2-methoxyphenyl)quinazolin-4(3H)-one]",50
14,"O=c1[nH]cnc2c(O)cc(-c3ccc(F)cc3)c(-c3cccc(C(F)(F)F)c3)c12 [Example 53, 6-(4-Fluorophenyl)-8-hydroxy-5-(3-(trifluoromethyl)phenyl)quinazolin-4(3H)-one]",20
15,"O=c1[nH]cnc2c(O)cc(-c3cncs3)cc12 [Example 90, 8-Hydroxy-6-(thiazol-5-yl)quinazolin-4(3H)-one]",20
16,"Cc1noc(C)c1-c1cc(O)c2nc[nH]c(=O)c2c1 [Example 78, 6-(3,5-Dimethylisoxazol-4-yl)-8-hydroxyquinazolin-4(3H)-one]",320
17,"O=c1[nH]cnc2c(O)cc(-c3cncc4ccccc34)cc12 [Example 168, 8-Hydroxy-6-(isoquinolin-4-yl)quinazolin-4(3H)-one]",30
18,"CS(=O)(=O)CCc1ccccc1-c1cc(O)c2nc[nH]c(=O)c2c1 [Example 116, 8-Hydroxy-6-(2-(2-(methylsulfonyl)ethyl)phenyl)quinazolin-4(3H)-one 2,2,2-trifluoroacetate]",180
19,"O=C(Nc1c(-c2ccc(F)cc2)cc(O)c2nc[nH]c(=O)c12)c1ccccc1 [Example 254, N-(6-(4-Fluorophenyl)-8-hydroxy-4-oxo-3,4-dihydroquinazolin-5-yl)benzamide]",1400

# The next lines start with the values.
row,IC50 [nM],Structure (SMILES)
1,50,"CN(C)CCNC(=O)c1ccc(-c2cc(O)c3nc[nH]c(=O)c3c2)cc1 [Example 173, N-(2-(Dimethylamino)ethyl)-4-(8-hydroxy-4-oxo-3,4-dihydroquinazolin-6-yl)benzamide]"
2,190,"COc1ccc(C(F)(F)F)cc1-c1cc(O)c2nc[nH]c(=O)c2c1 [Example 26, 8-Hydroxy-6-(2-methoxy-5-(trifluoromethyl)phenyl)quinazolin-4(3H)-one]"
3,3230,"CCCS(=O)(=O)c1ccccc1-c1cc(O)c2nc[nH]c(=O)c2c1 [Example 249, 8-Hydroxy-6-(2-(propylsulfonyl)phenyl)quinazolin-4(3H)-one]"
4,1300,"COc1ccc(C(C)(C)C)cc1-c1cc(O)c2nc[nH]c(=O)c2c1 [Example 35, 6-(5-tert-Butyl-2-methoxyphenyl)-8-hydroxyquinazolin-4(3H)-one]"
5,40,"Cn1ccnc1-c1cc(O)c2nc[nH]c(=O)c2c1 [Example 73, 8-Hydroxy-6-(1-methyl-1H-imidazol-2-yl)quinazolin-4(3H)-one]"
6,20,"COCc1ncccc1-c1cc(O)c2nc[nH]c(=O)c2c1 [Example 110, 8-Hydroxy-6-(2-(methoxymethyl)pyridin-3-yl)quinazolin-4(3H)-one bis(2,2,2-trifluoroacetate)]"
7,100,"O=c1[nH]cnc2c(O)cc(-c3cscn3)cc12 [Example 91, 8-Hydroxy-6-(thiazol-4-yl)quinazolin-4(3H)-one]"
8,160,"O=C(c1ccncc1)c1cc(O)c2nc[nH]c(=O)c2c1 [Example 93, 8-Hydroxy-6-isonicotinoylquinazolin-4(3H)-one]"
9,20,"O=c1[nH]cnc2c(O)cc(-c3ccc4c(c3)OCCO4)cc12 [Example 176, 6-(2,3-Dihydrobenzo[b][1,4]dioxin-6-yl)-8-hydroxyquinazolin-4(3H)-one]"
10,50,"O=c1[nH]cnc2c(O)cc(-c3ccc(Br)nc3)cc12 [Example 144, 6-(6-Bromo-pyridin-3-yl)-8-hydroxy-3H-quinazolin-4-one]"
11,10,"O=c1[nH]cnc2c(O)cc(-c3ccc(F)cc3)c(F)c12 [Example 195, 5-Fluoro-6-(4-fluorophenyl)-8-hydroxyquinazolin-4(3H)-one]"
12,190,"O=c1[nH]cnc2c(O)cc(-c3cncnc3)cc12 [Example 153, 8-Hydroxy-6-(pyrimidin-5-yl)quinazolin-4(3H)-one 2,2,2-trifluoroacetate]"
13,10,"COC(=O)c1cc(C)c(-c2cc(O)c3nc[nH]c(=O)c3c2)s1 [Example 81, Methyl 5-(8-hydroxy-4-oxo-3,4-dihydroquinazolin-6-yl)-4-methylthiophene-2-carboxylate]"
14,30,"COc1ncccc1-c1cc(O)c2nc[nH]c(=O)c2c1 [Example 162, 8-Hydroxy-6-(2-methoxypyridin-3-yl)quinazolin-4(3H)-one]"
15,20,"O=c1[nH]cnc2c(O)cc(C3=CCOCC3)cc12 [Example 70, 6-(3,6-Dihydro-2H-pyran-4-yl)-8-hydroxyquinazolin-4(3H)-one]"
16,40,CSCc1ccccc1-c1cc(O)c2nc[nH]c(=O)c2c1 [Example 114]
17,20,"O=c1[nH]cnc2c(O)cc(-c3ccc(F)c(F)c3F)cc12 [Example 31, 8-Hydroxy-6-(2,3,4-trifluoro-phenyl)-3H-quinazolin-4-one]"
18,20,"CSc1ccccc1-c1cc(O)c2nc[nH]c(=O)c2c1 [Example 223, 8-Hydroxy-6-(2-(methylthio)phenyl)quinazolin-4(3H)-one]"
19,1400,"Cc1ccc(-c2ccc(C(F)(F)F)cc2)c(-c2cc(O)c3nc[nH]c(=O)c3c2)c1 [Example 30, 8-Hydroxy-6-(4-methyl-4′-(trifluoromethyl)biphenyl-2-yl)quinazolin-4(3H)-one]"
20,100,"O=c1[nH]cnc2c(O)cc(C3CCc4ccccc4C3)cc12 (racemic) [Example 8, (rac.) 8-Hydroxy-6-(1,2,3,4-tetrahydronaphthalen-2-yl)quinazolin-4(3H)-one]"

# Same assay, conditions: IC50, COMT-fluorescence assay, rec. human COMT 25 nM, 4-Nitrocatechol-Alexa488 200 nM, SAM 500 nM
row,Structure (SMILES),IC50 [nM]
1,"CN(C)Cc1ccccc1-c1cc(O)c2nc[nH]c(=O)c2c1 [Example 155, 6-(2-((Dimethylamino)methyl)phenyl)-8-hydroxyquinazolin-4(3H)-one]",1380
2,"CN1CCN(c2cc(O)c3nc[nH]c(=O)c3c2)CC1 [Example 190, 8-Hydroxy-6-(4-methyl-piperazin-1-yl)-3H-quinazolin-4-one]",1290
3,"COc1ccc(-c2cc(O)c3nc[nH]c(=O)c3c2)cc1 [Example 135, 8-Hydroxy-6-(4-methoxy-phenyl)-3H-quinazolin-4-one]",10
4,"O=c1[nH]cnc2c(O)cc(-c3ccccc3Cl)cc12 [Example 132, 6-(2-Chlorophenyl)-8-hydroxyquinazolin-4(3H)-one]",20
5,"CN1CC=C(c2c(-c3ccc(F)cc3)cc(O)c3nc[nH]c(=O)c23)CC1 [Example 61, 6-(4-Fluorophenyl)-8-hydroxy-5-(1-methyl-1,2,3,6-tetrahydropyridin-4-yl)quinazolin-4(3H)-one]",130

# Second part, the compound after the results:
row,IC50 [nM],Structure (SMILES)
1,70,"O=c1[nH]cnc2c(O)cc(-c3ccc4c(c3)CNCC4)cc12 [Example 174, 8-Hydroxy-6-(1,2,3,4-tetrahydroisoquinolin-7-yl)quinazolin-4(3H)-one]"
2,30,"CS(=O)(=O)c1ccc(-c2cc(O)c3nc[nH]c(=O)c3c2)c(F)c1 [Example 158, 6-(2-Fluoro-4-(methylsulfonyl)phenyl)-8-hydroxyquinazolin-4(3H)-one]"
3,870,"CS(=O)(=O)c1ccccc1-c1cc(O)c2nc[nH]c(=O)c2c1 [Example 212, 8-Hydroxy-6-(2-(methylsulfonyl)phenyl)quinazolin-4(3H)-one]"
